Experimental data: patent US20150190388A1, “PHARMACEUTICAL COMPOSITION OF MOXIFLOXACIN HYDROCHLORIDE AND PREPARATION METHOD” (RIVOPHARM SA, priority 2012, published 2015)
“Also recorded” adds a separate entry of the source. Counter-ions that a name gives are not always drawn.

Test: Stability of the anhydrous moxifloxacin hydrochloride to humidity and drying (XRPD, water content)
Type: physicochemical
Source text: The water contents of the moxifloxacin hydrochloride and of the excipients can be determined using any one of the analytical methods described in the prior art. For example, one may use of the Karl Fisher titration method as described in the European Pharmacopoeia Chapter 2.5.12 (Ph. Eur. 2.5.12) using the Metrohm 7012 KF Titrino® titrator.
The anhydrous moxifloxacin hydrochloride is exposed for several hours to a relative humidity of approximately 40%, which causes an increase in its water content. At the end of the exposure, the water content of the active ingredient is approximately 4% by weight. […] Such results illustrate the low stability of the anhydrous moxifloxacin hydrochloride in the presence of a humidity level of 40%. The conversion of the anhydrous moxifloxacin hydrochloride into a hydrate form becomes significant for a water content above 2%.

COc1c(N2C[C@@H]3CCCN[C@@H]3C2)c(F)cc2c(=O)c(C(=O)O)cn(C3CC3)c12 [anhydrous moxifloxacin hydrochloride, 1-cyclopropyl-6-fluoro-1,4-dihydro-8-methoxy-7-[(4aS,7aS)-octahydro-6H-pyrrolo[3,4-b]pyridin-6-yl]-4-oxo-3-quinolinecarbolic acid]
water content above which conversion of the anhydrous form into a hydrate form becomes significant: above 2%
water content after drying of the hydrate form obtained (drying for several hours): less than 1 % by weight
polymorphic form by XRPD after drying of the hydrate form (drying for several hours, FIG. 2 curve 2): reconvert the hydrate formed into an anhydrous polymorphic form; also recorded: conversion into the starting anhydrous form
water content at the end of the exposure (exposed for several hours to a relative humidity of approximately 40%): approximately 4 % by weight
polymorphic form by XRPD after humidity exposure (several hours at relative humidity of approximately 40%, FIG. 2 curve 3): has a tendency to convert into hydrate; also recorded: converted into a hydrate polymorphic form
